Consider 90 compounds from a melting point compilation (Tetko et al.; mined from patent text by program, amines drawn as free bases though some values may be those of a salt).

Structures are written as SMILES.

Usually melting point stands for the temperature, or range, at which the solid turns liquid. Turning to `N=C(NS(=O)(=O)c1ccc(F)cc1)C1=NN(c2ccc(Cl)cc2)C(c2ccccc2)C1` (stereo not given), the melting point is 200 to 204 °C.

Consider `OCc1cccc(-c2ccc(-c3cn([C@H]4CN5CCC4CC5)nn3)cc2)c1`, for which the melting point came out at 207 °C.

In the case of `Cn1c2c(c(=O)n3nc(-c4ccccc4)cc13)CN(C1CCCCC1)C2=O`, the melting point was 276 to 279 °C.

`Nc1nc2c(c(Nc3ccc(F)cc3)n1)-c1ccccc1C2` had a melting point of 205 to 206 °C.

With `CC(=O)NCC1CC(c2ccc(C3=CCN(C(=O)CO)CC3)cc2)=NO1` (stereo not given), the melting point fell in the range of 115 to 118 °C.

In the case of `CCCCOc1nccc2c1C(c1ccccc1C(F)(F)F)C(C(=O)OCC)=C(C)N2` (stereo not given), the melting point lay in the range of 174 to 175 °C.

Regarding `CN(CCNC(=O)NCCCOc1cccc(CN2CCCCC2)c1)CCN(Cc1ccc(F)cc1)c1ccccn1`, the melting point is 68 °C.

`CCN1Cc2ccccc2N(CC)C(Nc2nc(Nc3cc4c(cc3OC)CCN(CC(=O)N(C)C)CC4)ncc2Cl)C1` (stereo not given): the melting point lay within 85 to 90 °C.

The compound `O=C1C2CCCN2c2ccccc2N1Cc1ccccc1` (stereo not given) had a melting point of 156 to 157 °C.

`COc1ccc(S(=O)(=O)Nc2ccccc2NC(=O)c2ccncc2)cc1` gave a melting point of 162 to 163 °C.

As to `NC(=O)c1ccc(F)c2c1OCC(N(CCCc1c[nH]c3c(F)cc(F)cc13)CC1CC1)C2` (stereo not given), the melting point came out at 124 °C.

Regarding `C=CCc1cc2c(c(CC=C)c1OC1CCCCO1)CCC(=O)N2` (stereo not given), the melting point was 119 to 120 °C.

The compound `CC(C)(C)c1ccc(C=C(SC(=Cc2ccc(C(C)(C)C)cc2)S(=O)(=O)c2ccccc2)S(=O)(=O)c2ccccc2)cc1` yielded a melting point of 57 to 58 °C.

As for `CC(C)c1ccc(-n2nc(O)c3[nH]c4cc(Cl)ccc4c(=O)c3c2=O)cc1`, the melting point fell in the range of 323 to 326 °C.

`NS(=O)(=O)c1cc(Cl)c(Cl)c(Cl)c1` returned a melting point of 190 to 191 °C.

The compound `CN1C(=O)c2ccccc2CC1c1ccc(C(C)(C)C)cc1` (stereo not given) displayed a melting point of 116 to 117 °C.

For `CC(C)c1nc(CCCO)n(C)c1Sc1cc(Cl)cc(Cl)c1`, the melting point lay within 124 to 125 °C.

Regarding `O=C(C=CC=Cc1ccccc1)c1cccc([N+](=O)[O-])c1`, the melting point lay within 58 to 60 °C.

`COc1cc2c(c(C(C)C)c1OC)C(=O)N(CCl)S2(=O)=O` displayed a melting point of 117 to 119 °C.

Regarding `CCC1(C)C(=O)c2c(Cl)cc(C)c(C)c2C1=O` (stereo not given), the melting point came to 97 °C.

For `Cn1ncnc1COc1nn2c(-c3ccccc3)nnc2c(Cl)c1N1CCCC1`, the melting point fell in the range of 174 to 176 °C.

The compound `O=CC(=CCl)c1ccc(Cl)cc1` came in with a melting point of 38 °C.

Turning to `CCN(CC)N(C(C)=O)c1nc2cc3nc(N)sc3cc2s1`, the melting point lay in the range of 203 to 205 °C.

Regarding `CC(CC#CC(C)(C)O[Si](C)(C)C(C)(C)C)C1=CCC2C3=CC=C4CC(O[Si](C)(C)C(C)(C)C(C)C)CCC4(C)C3CCC12C` (stereo not given), the melting point fell in the range of 62 to 66 °C.

Compound `COc1cc(C(=O)c2ccc(C)cc2)cc(C(=O)O)c1OC` displayed a melting point of 135 to 136 °C.

Regarding `CC1CC(NC=O)=NN1c1ccc(Cl)cc1` (stereo not given), the melting point lay in the range of 112 to 113 °C.

As to `NS(=O)(=O)c1ccc(-n2c(-c3ccccc3)csc2=S)cc1`, the melting point was 235 °C.

For the compound `CC(=O)OCCCc1ccc(-c2ccc3cc(C(=O)OCc4ccccc4)ccc3c2)cc1C12CC3CC(CC(C3)C1)C2`, the melting point was 132 °C.

`O=C1N[C@H](C(=O)O)CSCCCCCCCC1CS` (stereo not given in full) had a melting point of 169 to 173 °C.

`CNC(=O)N(O)CC#Cc1cccc(C2=N[C@H](c3ccccc3)CO2)c1` registered a melting point of 163 to 165 °C.

The compound `CC(=O)OCCOCCN1CCC(CNC(=O)[C@@H]2CCCN2S(=O)(=O)c2ccc(Cl)c(COc3cccc4c(-n5ccnc5)cc(C)nc34)c2Cl)CC1` registered a melting point of 90 °C.

For the compound `Nc1ncnc2c1c(-c1ccc(OCc3ccccc3)cc1)cn2-c1ccc(OCCn2ccnc2)cc1`, the melting point was 105 to 107 °C.

`CCOC(=O)C=Cc1ccc(O)cc1`: the melting point lay in the range of 70 to 71 °C.

Compound `O=C(Nc1ccc(OCCCCl)c2ccccc12)c1cc(F)cc(N2CCCCC2)c1` displayed a melting point of 181 to 182 °C.

`O=C1c2sccc2-n2cnc(Cl)c2[C@@H]2CCCN12` had a melting point of 180 to 183 °C.

`NS(=O)(=O)c1ccc(-c2cnn(CC(F)=C(F)F)c(=O)c2-c2ccc(F)cc2)cc1` registered a melting point of 173 to 175 °C.

The compound `Cc1nccn1CC1CCc2c(c3ccccc3n2C)C1NO` (stereo not given) came in with a melting point of 140 to 144 °C.

`Cc1[nH]c(=S)[nH]c1C(N)=O`: the melting point was less than 300 °C.

In the case of `CC(C(=O)O)c1ccc(-c2ccc(Cl)cc2F)c(O)c1` (stereo not given), the melting point was in the range of 145 to 149 °C.

On to `COc1nc2ccc(Br)cc2cc1Cc1ccccc1`, for which the melting point was in the range of 83 to 85 °C.

Compound `CON(C)C(=O)c1cc([N+](=O)[O-])c(F)cc1Cl` displayed a melting point of 89 °C.

Take `CC(C)NC1=NS(=O)(=O)c2cc(C(=O)O)ccc2N1`: the melting point is greater than 310 °C.

For the compound `NS(=O)(=O)c1c(S)cccc1C(F)(F)F`, the melting point amounted to 155 °C.

As to `Clc1ccc(-c2nc(Cc3nnn[nH]3)c(-c3ccccc3)s2)cc1`, the melting point lay in the range of 213 to 214 °C.

As for `CCCCOc1ccc(NC(=O)CNc2ccccc2F)cc1`, the melting point lay in the range of 92 to 94 °C.

`Brc1ccc(N2CCN(Cc3ccccc3)CC2)nc1` displayed a melting point of 100 °C.

In turn, `Cc1nc(Cl)c2c(c1O)COC2CCc1ccccc1` (stereo not given) showed a melting point of 193 °C.

`CCCN(CC1CC1)c1nc(C)nc2c1c(C)c(C)n2-c1c(C)cc(C)c2nsnc12` returned a melting point of 136 °C.

Regarding `COc1ccc(Cc2cnc(NCCSCc3nc[nH]c3C)[nH]c2=O)cn1`, the melting point was in the range of 197 to 198 °C.

For the compound `CCN1CCNC(=O)C1c1ccc(N)cc1` (stereo not given), the melting point was in the range of 153 to 154 °C.

`COc1cc(Nc2nccc(-c3ccccn3)n2)cc(OC)c1OC` displayed a melting point of 185 °C.

As to `c1cc2cc(-c3nnn[nH]3)ccc2[nH]1`, the melting point came out at 205 °C.

Compound `CC(C)(CCCc1cccnc1)NC(=O)Cc1ccccc1[N+](=O)[O-]` came in with a melting point of 117 to 118 °C.

The compound `CC(CCCN(C)C)C1CC(=O)C2=C3CCC4CC(O)CCC4(C)C3CCC21C` (stereo not given) returned a melting point of 160 to 162 °C.

`CC(NC(=O)C1(C(F)(F)F)CC(C)(Cl)C1)c1ccc(Cl)cc1` (stereo not given) showed a melting point of 129 to 130 °C.

As to `CCCOc1c(OC)cc(N)c2ncccc12`, the melting point is 73 to 74 °C.

For `CC1Cc2cc3c(cc2C1=O)C(C)(C)CCC3(C)C` (stereo not given), the melting point lay within 74 to 75.5 °C.

In the case of `C=CCOC(=O)c1ccc(N)cc1O`, the melting point was in the range of 58 to 59 °C.

As for `C#CCOC(=O)c1ccc(O)c(O)c1`, the melting point fell in the range of 127 to 129 °C.

`CCCCc1[nH]c(CC)nc(=O)c1Cc1ccc(-c2ccccc2C(=O)O)cc1`: the melting point is 207 °C.

Turning to `CCCCCCC(C(=O)O)c1cccc(Sc2ccccc2C)c1O` (stereo not given), the melting point was 90 to 91 °C.

Regarding `O=Cc1csc2cc([N+](=O)[O-])ccc12`, the melting point fell in the range of 187 to 192 °C.

As to `C=Cc1cnc(C)c(O)c1CS`, the melting point fell in the range of 198 to 200 °C.

In turn, `COC(=O)c1c(CBr)cccc1CBr` showed a melting point of 76 to 79 °C.

Regarding `CS(=O)(=O)N1CCN([C@@H](CNC(=O)c2ccc(OCc3cccc4ccccc34)cc2)C(=O)NO)CC1`, the melting point came to 170 °C.

The compound `Nc1ccc(-c2cnc(COCc3cc4ccccc4o3)o2)cc1` yielded a melting point of 96 to 98 °C.

Compound `Cc1ccnc(NC(=O)c2c(-c3ccc(F)cc3)c(-c3ccc(F)cc3)c(C=O)n2C(C)C)n1` had a melting point of 173 to 175 °C.

Consider `CN(C)CCCn1c(-c2ccc(C#N)cc2)cc2c1CCCCC2`, for which the melting point lay in the range of 96 to 97 °C.

The compound `CCCOc1ncc(I)cc1C(=O)Nc1c(CC)nn(CCN2CCOCC2)c1C(N)=O` yielded a melting point of 180 °C.

As for `NC1C(=O)N(CC(O)C(F)(F)F)c2ccccc2-c2ccccc21` (stereo not given), the melting point lay in the range of 192 to 194 °C.

Consider `O=C1Nc2ccccc2N(C(=O)N2CCCC(CCNCC3CCCC3)C2)c2ncccc21` (stereo not given), for which the melting point was 148 to 150 °C.

As for `COc1cc(NC(NC2CCC2)=C(C#N)S(=O)(=O)c2ccc(Cl)cc2)cc(OC)c1`, the melting point came to 164 °C.

The compound `CCOC(=O)c1cccc(Nc2nccc(-c3cccnc3)n2)c1` returned a melting point of 197 to 199 °C.

Compound `O=C(Cl)N1CC(Oc2ccc(F)cc2Cl)C1` had a melting point of 93 to 94 °C.

For `COC(=O)CCC(=O)c1cc(OC)ccc1OCC1CO1` (stereo not given), the melting point lay within 50 to 51.5 °C.

In the case of `CC1(C)CCC(C)(C)c2cc(OCc3ccc(CN)cc3)ccc21`, the melting point lay within 77 to 79 °C.

`Cc1cc(Cl)ccc1OC(Cn1cncn1)C(O)C(C)(C)C` (stereo not given) came in with a melting point of 124 to 126 °C.

Regarding `CC(C)(C)OC(=O)NC1CCCCc2cc(OCC3CCCCC3)c(C(=O)O)cc21` (stereo not given), the melting point lay in the range of 159 to 160 °C.

With `COC(=O)CCSc1cc(=O)c2c(O)cc(O)c(C3CCN(C)CC3O)c2o1` (stereo not given), the melting point turned out to be 78 °C.

`CCC(C)N1CCc2c(C(=O)O)nc3c(C#N)cnn3c21` (stereo not given): the melting point lay in the range of 191 to 192 °C.

For the compound `C=CCSC[C@H](NC(=O)OC(C)(C)C)C(=O)OC`, the melting point was in the range of 37 to 38 °C.

In turn, `COC(=O)NOCC(=O)OCOC(=O)Oc1c(Br)cc(C#N)cc1Br` registered a melting point of 110 to 111 °C.

`Cc1cc(Br)cnc1NCCCNC1=NS(=O)N=C1NCc1ccc(F)cc1` (stereo not given) yielded a melting point of 125 to 126 °C.

Consider `CC(C)(C)NS(=O)(=O)c1cnc(-c2cn(-c3cc(-c4ccc(C(F)(F)F)cc4)cc(C(F)(F)F)n3)cn2)s1`, for which the melting point is 252 °C.

Turning to `Cn1nc(CO)nc1NCCCOc1cccc(CN2CCCCC2)c1`, the melting point lay in the range of 118 to 119 °C.

In turn, `S=C(NCC1CCCCC1)NCC1CCCCC1` registered a melting point of 124 to 125 °C.

In turn, `CCc1nnc(NS(=O)(=O)c2ccc(NC(C)=O)cc2)s1` had a melting point of 197 to 198 °C.

Take `COc1ccccc1CCC(C)(O)CC1CCCCN1` (stereo not given): the melting point is 115 to 116 °C.

In the case of `COc1ccc(C2OC(=O)NC2C)cc1OC` (stereo not given), the melting point lay within 98 to 99 °C.

As to `CCC(C1CCCC1)C(O)(c1ccc(O)cc1)c1ccc(OCCN(C)C)cc1` (stereo not given), the melting point was in the range of 112 to 120 °C.
